# Laboratory results from patent publication US20210008012A1, “NOVEL APPLICATIONS OF DISULFIRAM AND DERIVATIVES THEREOF” (GENEHEAL BIOTECHNOLOGY CO., LTD., priority 2017, published 2021).
# Test system: PAICS
# Test: Animal experiments: inhibition of SAICAR accumulation
# Type: in vivo
# Details: "can reach"
# Source text: By inhibiting the activity of PAICS, the accumulation of toxic compound […] is reduced, which proves that the compound disulfiram can effectively treat rare disease ADSL deficiency.
compound,measurement,value
"CCN(CC)C(=S)SSC(=S)N(CC)CC [disulfiram, Disulfiram]",inhibition ratio against SAICAR accumulation,87.11%
